Consider 31 compounds from patent publication US8399462B2, “JNK modulators” (Roche Palo Alto LLC, priority 2006, dated 2013).

As a reminder, the melting point is the temperature of the solid-liquid transition. `CS(=O)(=O)CCCOc1cccc2c1cnn2-c1ccnc(N[C@H]2CC[C@H](C(=O)N3CCCC3)CC2)n1` [Compound 155, (4-{4-[4-(3-methane-sulfonyl-propoxy)-indazol-1-yl]-pyrimidin-2-ylamino}-cyclohexyl)-pyrrolidin-1-ylmethanone]: the melting point fell in the range of 183.4 to 184.5 °C.

The compound `CS(=O)(=O)CCCOc1cccc2c1cnn2-c1ccnc(N[C@H]2CC[C@H](NS(C)(=O)=O)CC2)n1` [Compound 156, N-(4-{4-[4-(3-methane-sulfonyl-propoxy)-indazol-1-yl]-pyrimidin-2-ylamino}-cyclohexyl)-methanesulfonamide] yielded a melting point of 247 to 248 °C.

In turn, `CN([C@H]1CC[C@H](Nc2nccc(-n3ncc4c(OCCCS(C)(=O)=O)cccc43)n2)CC1)S(C)(=O)=O` [Compound 158, N-(4-{4-[4-(3-methane-sulfonyl-propoxy)-indazol-1-yl]-pyrimidin-2-ylamino}-cyclohexyl)-N-methyl-methane-sulfonamide] gave a melting point of 208.8 to 209.6 °C.

In the case of `COCCOCc1cccc2c1ccn2-c1ccnc(N[C@H]2CC[C@H](N(C)S(C)(=O)=O)CC2)n1` [Compound 160, N-(4-{4-[4-(2-methoxy-ethoxymethyl)-indol-1-yl]-pyrimidin-2-ylamino}-cyclohexyl)-N-methyl-methane-sulfonamide], the melting point was in the range of 154 to 156.5 °C.

Regarding `CN([C@H]1CC[C@H](Nc2nccc(-n3ccc4c(C(C)(C)O)cccc43)n2)CC1)S(C)(=O)=O` [Compound 161, N-(4-{4-[4-(1-hydroxy-1-methyl-ethyl)-indol-1-yl]-pyrimidin-2-yl-amino}-cyclohexyl)-N-methyl-methane-sulfonamide], the melting point was in the range of 149 to 150 °C.

The compound `CN([C@H]1CC[C@H](Nc2nccc(-n3ccc4c(CC#N)cccc43)n2)CC1)S(C)(=O)=O` [Compound 163, N-{4-[4-(4-cyano-methyl-indol-1-yl)-pyrimidin-2-ylamino]-cyclohexyl}-N-methyl-methanesulfonamide] gave a melting point of 187.8 to 189 °C.

The compound `CN(c1cccc2c1ccn2-c1ccnc(N[C@H]2CC[C@H](C(C)(C)O)CC2)n1)S(C)(=O)=O` [Compound 164, N-(1-{2-[4-(1-hydroxy-1-methyl-ethyl)-cyclo-hexylamino]-pyrimidin-4-yl}-1H-indol-4-yl)-N-methyl-methanesulfonamide] came in with a melting point of 216.5 to 217.5 °C.

With `CC(C)Oc1cccc2c1cnn2-c1ccnc(N[C@H]2CC[C@H](O)CC2)n1` [Compound 167, 4-[4-(4-isopropoxy-indazol-1-yl)-pyrimidin-2-ylamino]-cyclohexanol], the melting point lay in the range of 188.2 to 189.2 °C.

As for `CCCCOc1cccc2c1cnn2-c1ccnc(N[C@H]2CC[C@H](O)CC2)n1` [Compound 168, 4-[4-(4-butoxy-indazol-1-yl)-pyrimidin-2-yl-amino]-cyclohexanol], the melting point lay within 195 to 196 °C.

As for `CC(C)COc1cccc2c1cnn2-c1ccnc(N[C@H]2CC[C@H](O)CC2)n1` [Compound 169, 4-[4-(4-isobutoxy-indazol-1-yl)-pyrimidin-2-ylamino]-cyclohexanol], the melting point was 189.3 to 190.3 °C.

Regarding `COC(=O)N[C@H]1CC[C@H](Nc2nccc(-n3ncc4c(OCCCS(C)(=O)=O)cccc43)n2)CC1` [Compound 170, (4-{4-[4-(3-methane-sulfonyl-propoxy)-indazol-1-yl]-pyrimidin-2-ylamino}-cyclohexyl)-carbamic acid methyl ester], the melting point lay within 226.8 to 227.3 °C.

Compound `CN([C@H]1CC[C@H](Nc2nccc(-n3ccc4c(C(C)(C)C#N)cccc43)n2)CC1)S(C)(=O)=O` [Compound 173, N-(4-{4-[4-(2-cyano-prop-2-yl)-indol-1-yl]-pyrimidin-2-ylamino}-cyclohexyl)-N-methyl-methanesulfonamide] displayed a melting point of 189 to 190 °C.

In the case of `CC(C#N)c1cccc2c1ccn2-c1ccnc(N[C@H]2CC[C@H](N(C)S(C)(=O)=O)CC2)n1` (stereo partly shown) [Compound 174, N-(4-{4-[4-(1-cyano-ethyl)-indol-1-yl]-pyrimidin-2-ylamino}-cyclohexyl)-N-methyl-methanesulfonamide], the melting point is 196 to 197 °C.

In the case of `CC(=O)N[C@H]1CC[C@H](Nc2nccc(-n3ccc4c(C(C)C#N)cccc43)n2)CC1` (stereo partly shown) [Compound 175, N-(4-{4-[4-(1-cyano-ethyl)-indol-1-yl]-pyrimidin-2-ylamino}-cyclohexyl)-acetamide], the melting point fell in the range of 244 to 245 °C.

As for `CC(=O)N[C@H]1CC[C@H](Nc2nccc(-n3ccc4c(C(C)(C)C#N)cccc43)n2)CC1` [Compound 176, N-(4-{4-[4-(2-cyano-prop-2-yl)-indol-1-yl]-pyrimidin-2-ylamino}-cyclohexyl)-acetamide], the melting point fell in the range of 238 to 239 °C.

As to `CN([C@H]1CC[C@H](Nc2nccc(-n3ncc4c(OCCCO)cccc43)n2)CC1)S(C)(=O)=O` [Compound 178, N-(4-{4-[4-(3-hydroxy-propoxy)indazole-1-yl]-pyrmidin-2-ylamino}-cyclohexyl)-N-methyl-methanesulfonamide], the melting point was 208.4 to 209 °C.

`CC(C)(O)c1cccc2c1ccn2-c1ccnc(N[C@H]2CC[C@H](N3CCCS3(=O)=O)CC2)n1` [Compound 179, 2-(1-{2-[4-(1,1-dioxo-isothiazolidin-2yl)-cyclohexylamino}-pyrimidin-4-yl}-1H-indol-4-yl)-propan-2-ol]: the melting point lay in the range of 206.9 to 207.6 °C.

In the case of `CC(C)(C)OC(=O)N[C@H]1CC[C@H](Nc2nccc(-n3ccc4c(OCCCS(C)(=O)=O)cccc43)n2)CC1` [Compound 181, (4-{4-[4-(3-methane-sulfonyl-propoxy)-indol-1-yl]-pyrimidin-2-ylamino}-cyclohexyl)-carbamic acid t-butyl ester], the melting point lay within 227.5 to 228.5 °C.

`CN(C)S(=O)(=O)N[C@H]1CC[C@H](Nc2nccc(-n3ccc4c(C5(O)CCOCC5)cccc43)n2)CC1` [Compound 182, N-(4-{4-[4-(4-hydroxy-tetrahydropyran-4-yl)-indol-1-yl]-pyrimidin-2-ylamino}-cyclohexyl)-(N′,N′-dimethylamino)-sulfonamide] showed a melting point of more than 300 °C.

On to `CC(C)(O)[C@H]1CC[C@H](Nc2nccc(-n3ncc4c(OCCCO)cccc43)n2)CC1` [Compound 183, 3-(1-{2-[4-(2-hydroxy-prop-2-yl)-cyclohexyl-amino]-pyrimidin-4-yl}-1H-indazol-4-yloxy)-propan-1-ol], for which the melting point was in the range of 229.5 to 231 °C.

Turning to `CS(=O)(=O)CCCOc1cccc2c1cnn2-c1ccnc(N[C@H]2CC[C@H](C(=O)N3CCC(O)CC3)CC2)n1` [Compound 184, (4-hydroxy-piperidin-1-yl)-(4-{4-[4-(3-methane-sulfonyl-propoxy)-indazol-1-yl]-pyrimidin-2-ylamino}-cyclohexyl)-methanone], the melting point was in the range of 143 to 145 °C.

`CN([C@H]1CC[C@H](Nc2nccc(-n3ccc4c(CNS(C)(=O)=O)cccc43)n2)CC1)S(C)(=O)=O` [Compound 188, N-(4-{4-[4-(methane-sulfonylamino-methyl)-indol-1-yl]-pyrimidin-2-ylamino}-cyclohexyl)-N-methyl-methane-sulfonamide] showed a melting point of 226.5 to 228 °C.

In turn, `CC(C)Oc1cccc2c1cnn2-c1ccnc(N[C@H]2CC[C@H](N(C)S(C)(=O)=O)CC2)n1` [Compound 189, N-{4-[4-(4-isopropoxy-indazol-1-yl)-pyrimidin-2-ylamino]-cyclohexyl}-N-methyl-methanesulfonamide] displayed a melting point of 222 to 223 °C.

`CCCCOc1cccc2c1cnn2-c1ccnc(N[C@H]2CC[C@H](N(C)S(C)(=O)=O)CC2)n1` [Compound 190, N-{4-[4-(4-butoxy-indazol-1-yl)-pyrimidin-2-ylamino]-cyclohexyl}-N-methyl-methanesulfonamide]: the melting point is 191 to 192 °C.

On to `CC(C)COc1cccc2c1cnn2-c1ccnc(N[C@H]2CC[C@H](N(C)S(C)(=O)=O)CC2)n1` [Compound 191, N-{4-[4-(4-isobutoxy-indazol-1-yl)-pyrimidin-2-ylamino]-cyclohexyl}-N-methyl-methanesulfonamide], for which the melting point lay within 227 to 228 °C.

In turn, `CS(=O)(=O)N[C@H]1CC[C@H](Nc2nccc(-n3ccc4c(C5(O)CCOCC5)cccc43)n2)CC1` [Compound 194, N-(4-{4-[4-(4-hydroxy-tetrahydropyran-4-yl)-indol-1-yl]-pyrimidin-2-ylamino}-cyclohexyl)-methanesulfonamide] showed a melting point of 248.3 to 249 °C.

The compound `CS(=O)(=O)N[C@H]1CC[C@H](Nc2nccc(-n3ccc4c(OCC5CCN(C(=O)OCc6ccccc6)CC5)cccc43)n2)CC1` [Compound 195, 4-{1-[2-(4-methane-sulfonylamino-cyclo-hexylamino)-pyrimidin-4-yl]-1H-indol-4-yloxymethyl}-piperidine-1-carboxylic acid benzyl ester] registered a melting point of 179 to 180 °C.

`CN([C@H]1CC[C@H](Nc2nccc(-n3ncc4c(OCCCNS(C)(=O)=O)cccc43)n2)CC1)S(C)(=O)=O` [Compound 197, N-[3-(1-{2-[4-(methane-sulfonyl-methylamino)-cyclohexylamino]-pyrimidin-4-yl}-1H-indazol-4-yloxy)-propyl]-methane-sulfonamide] showed a melting point of 259 to 259.5 °C.

Compound `CS(=O)(=O)N[C@H]1CC[C@H](Nc2nccc(-n3ccc4c(OCCCC#N)cccc43)n2)CC1` [Compound 202, N-(4-{4-[4-(3-cyano-propoxy)-indol-1-yl]-pyrimidin-2-ylamino}-cyclohexyl)-methane-sulfonamide] showed a melting point of 247 to 248 °C.

Take `CC(=O)NCc1cccc2c1ccn2-c1ccnc(N[C@H]2CC[C@H](N(C)S(C)(=O)=O)CC2)n1` [Compound 205, N-(1-{2-[4-(methane-sulfonyl-methylamino)-cyclohexylamino]-pyrimidin-4-yl}-1H-indol-4-ylmethyl)-acetamide]: the melting point was in the range of 210.5 to 212 °C.

As to `N#CCCCOc1cccc2c1ccn2-c1ccnc(N[C@H]2CC[C@H](C(=O)N3CCC(O)CC3)CC2)n1` [Compound 206, 4-(1-{2-[4-(4-hydroxy-piperidin-1-carbonyl)-cyclohexylamino]-pyrimidin-4-yl}-1H-indol-4-yloxy)-butyro-nitrile], the melting point lay within 134 to 136 °C.
